Literature values in patent US9040535B2, “Crystalline molecular comlpexes of tadalafil” (THAR PHARMACEUTICALS, INC., priority 2009, dated 2015).

Columns and labels:
[1] = n-octanol/buffer pH 7.4

apparent partition coefficient (log P)app [1]: 1.7
solubility in chloroform (chloroform): sparingly soluble
solubility in dioxane (dioxane): soluble
solubility in tetrahydrofuran (tetrahydrofuran): sparingly soluble
solubility in water (water): practically insoluble
SMILES: CN1CC(=O)N2[C@H](c3ccc4c(c3)OCO4)c3[nH]c4ccccc4c3C[C@@H]2C1=O [Tadalafil, (6R-trans)-6-(1,3-benzodioxol-5-yl)-2,3,6,7,12,12a-hexahydro-2methyl-pyrazino[1′,2′:1,6]pyrido[3,4-b]indole-1,4-dione]
